Data: article PMC4546427, “Stereoselective Regulation of P-gp Activity by Clausenamide Enantiomers in Caco-2, KB/KBv and Brain Microvessel Endothelial Cells” (PLoS ONE, 2015)
“And” between values parts separate entries of the source, which are not always exact repeats. Equal values may be shown once.

How the values were obtained:
[1] = set-up: method as in PMID 18655159; details: cited from earlier work
P-gp [2] = target: T1, P-gp (Homo sapiens, UniProt P08183); experiment: Rh123 accumulation in KBv cells; assay type: cell-based; details: for Percentage of rhodamine 123 accumulation relative to vehicle treatment: positive = increase; for Effect on P-gp efflux activity when combined with verapamil (in words): higher concentration CLA 10 μmol/L plus verapamil 200 μmol/L
T1 construct: three cells expressing P-gp, Caco-2, KBv and rat brain microvessel endothelial cells (RBMEC); endogenous in cells; host or cells: Caco-2
Procedure: (§1) KB or its vinblastine-resistance derivative KBv cells[19] were maintained on 6-well plates (5 × 10^5 cells/well) in […] medium with 10% FBS, 100 units/mL penicillin and 100 μg/mL streptomycin sulphate at 37°C with 95% air and 5% CO2. After reaching 80%–90% confluence, the two cells were treated with the following agents, respectively: vehicle; (−)CLA (5 or 10 μmol/L); (+)CLA (5 or 10 μmol/L). Additionally, the KBv cells were treated with verapamil (200 μmol/L); or individual enantiomer (5 or 10 μmol/L) plus verapamil (200 μmol/L). Rh123 (5 μmol/L) were finally added to these wells. Subsequently, cell incubation, solubilisation and Rh123 accumulation were performed by using the same method for Caco-2 cells.

P-gp [3] = target: T1, P-gp; experiment: Rh123 accumulation in non-induced KB cells; assay type: cell-based; details: CLA 5 μmol/L, Rh123 5 μmol/L
Procedure: as §1

Caco-2 cells = experiment: Uptake of CLA enantiomers in Caco-2 cells (LC-MS/MS); assay type: in vitro ADME, Human; details: for Intracellular concentration: Mean±SD, n = 3
Procedure: Caco-2 cells on 6-well plates (5 × 10^5 cells/well) were cultured in MEM containing 10% (v/v) FBS, 1% (v/v) NEAA, 100 units/mL penicillin and 100 μg/mL streptomycin sulphate at 37°C with 95% air and 5% CO2. When 80%–90% confluence was observed using an inverted light microscope, the cells were treated, respectively, with (−)CLA or (+)CLA at 1, 2.5 and 5 μmol/L for 2 h, washed 3 times with ice-cold PBS, collected into 1.5-mL Eppendorf tubes and centrifuged at 1500 rpm for 5 min. The precipitates were lysed with 80 μL of lysis buffer described above, frozen with liquid nitrogen, then thawed in water at 37°C three times, and then centrifuged at 10,000 rpm for 10 min (4°C). We used 10 μL of supernatant for the determination of protein concentration using Lowry’s method with bovine serum albumin as the standard, and the residue of the supernatants was subjected to extraction with ethyl acetate. The internal standard (IS) was 20 μL of glipizide (5.2 μg/mL). Extracted CLA enantiomer and glipizide were measured by a liquid chromatography-tandem mass spectrometr(LC-MS/MS).
The LC-MS/MS system consisted of an Alliance HT 2795 LC pump, an autosampler, and a Micromass Quattro Premier tandem quadrupole mass spectrometer with an electrospray ionization (ESI) source and Masslynx version 4.1 software (Waters Corp., Milford, MA, USA). The separation of CLA enantiomer and glipizide was performed using an XBridge C18 column (2.1 mm × 50 mm; i.d., 3.5 μm) (Waters Corp., Milford, MA, USA). The column temperature was maintained at 22°C, and the sample injection volume was 20 μL in the autosampler at 4°C. Mobile phases A and B were water with 0.1% (v/v) acetic acid and acetonitrile with 0.1% (v/v) acetic acid, respectively. Gradient elution was used at a flow rate of 0.25 mL/min for 8 min with 80% A and 20% B for 0–2 min, 5% A and 95% B for 2–4 min and 80% A and 20% B for 4.01–8 min. The LC system was connected to the mass spectrometer by an electrospray interface. The positive-ion ESI mode was selected, and the electrospray capillary voltage was 3.5 kV. Desolvation gas (ultrapure nitrogen) flow and cone gas flow were provided separately at rates of 600 L/h and 50 L/h, and source and desolvation temperatures were set at 110°C and 450°C, respectively. Argon was used as a collision gas in collision-induced dissociation of precursor ions at a flow rate of 0.27 mL/min. The data were acquired using multiple reaction monitoring mode and analysed by Masslynx software 4.1. The main parameters (retention time, ion channel, cone voltage and collision energy) were as follows: 2.66 min, 298.2–174.1, 25 V and 17 V for CLA enantiomer; and 2.97 min, 446.7–321.2, 25 V and 12 V for glipizide (IS), respectively. The lower limit of quantification of CLA enantiomer was 0.25 ng/mL. The mean relative recovery was 89%, and intra-assay and inter-assay coefficients of variation were <15%. The range of linearity was 0.25–200 ng/mL with r = 0.999. The concentrations of (−) or (+)CLA were quantified by standard curves according to their peak areas against the IS.

[4] = high dose, CLA 10 μmol/L, Rh123 5 μmol/L
[5] = low dose, CLA 5 μmol/L, Rh123 5 μmol/L
[6] = dose of CLA enantiomer 1.0 μmol/L, 2 h
[7] = dose of CLA enantiomer 2.5 μmol/L, 2 h
[8] = dose of CLA enantiomer 5.0 μmol/L, 2 h

T1 sequence (P08183 whole entry): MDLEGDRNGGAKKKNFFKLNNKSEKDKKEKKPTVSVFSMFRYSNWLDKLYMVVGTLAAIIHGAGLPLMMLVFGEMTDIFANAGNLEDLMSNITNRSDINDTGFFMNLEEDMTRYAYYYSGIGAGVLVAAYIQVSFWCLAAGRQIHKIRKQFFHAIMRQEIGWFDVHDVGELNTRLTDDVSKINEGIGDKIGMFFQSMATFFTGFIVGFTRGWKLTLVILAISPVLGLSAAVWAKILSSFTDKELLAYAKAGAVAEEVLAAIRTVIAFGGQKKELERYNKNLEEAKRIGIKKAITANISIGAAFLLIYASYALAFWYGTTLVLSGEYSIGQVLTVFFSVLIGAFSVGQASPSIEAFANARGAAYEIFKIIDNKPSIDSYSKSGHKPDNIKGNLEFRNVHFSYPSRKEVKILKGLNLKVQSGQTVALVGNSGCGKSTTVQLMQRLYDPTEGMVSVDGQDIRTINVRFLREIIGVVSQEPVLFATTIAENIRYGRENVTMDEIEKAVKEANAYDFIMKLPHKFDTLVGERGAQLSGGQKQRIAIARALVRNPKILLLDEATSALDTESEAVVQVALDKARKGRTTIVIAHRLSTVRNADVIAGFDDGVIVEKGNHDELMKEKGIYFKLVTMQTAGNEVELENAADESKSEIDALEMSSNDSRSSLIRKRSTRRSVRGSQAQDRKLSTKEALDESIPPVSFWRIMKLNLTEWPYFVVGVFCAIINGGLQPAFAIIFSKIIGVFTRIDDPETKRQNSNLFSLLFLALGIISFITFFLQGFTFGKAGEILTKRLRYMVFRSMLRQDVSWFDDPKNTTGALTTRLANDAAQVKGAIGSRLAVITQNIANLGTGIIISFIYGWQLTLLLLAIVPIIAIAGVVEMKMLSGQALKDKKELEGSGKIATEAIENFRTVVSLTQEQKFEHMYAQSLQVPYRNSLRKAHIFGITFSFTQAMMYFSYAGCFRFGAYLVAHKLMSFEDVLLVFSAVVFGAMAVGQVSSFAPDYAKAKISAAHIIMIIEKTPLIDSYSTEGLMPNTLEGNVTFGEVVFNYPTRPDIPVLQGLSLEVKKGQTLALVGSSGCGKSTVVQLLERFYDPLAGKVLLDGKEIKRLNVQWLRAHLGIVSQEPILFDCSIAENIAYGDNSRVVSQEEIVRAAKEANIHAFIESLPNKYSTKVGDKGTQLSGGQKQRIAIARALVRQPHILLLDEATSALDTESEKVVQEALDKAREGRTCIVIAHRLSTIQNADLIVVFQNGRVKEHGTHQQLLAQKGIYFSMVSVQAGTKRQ

Row | SMILES | Amount that entered into rat brain, comparison of enantiomers ([1]; 15 min after oral administration, P < 0.001) | Percentage of rhodamine 123 accumulation relative to vehicle treatment (P-gp [2]; [4]) | Effect on P-gp efflux activity when combined with verapamil (in words) (P-gp [2]) | Percentage of rhodamine 123 accumulation relative to vehicle treatment (P-gp [2]; [5]) | Increase of Rh123 accumulation vs. control (P-gp [3]) [%] | Ratio (-)/(+) of intracellular concentrations (Caco-2 cells; 1.0 μmol/L, 2 h) | Ratio (-)/(+) of intracellular concentrations (Caco-2 cells; 2.5 μmol/L, 2 h) | Ratio (-)/(+) of intracellular concentrations (Caco-2 cells; 5.0 μmol/L, 2 h) | Intracellular concentration (Caco-2 cells; [6]) [ng/mL] | Intracellular concentration (Caco-2 cells; [7]) [ng/mL] | Intracellular concentration (Caco-2 cells; [8]) [ng/mL] | Ratio (-)/(+) of intracellular concentrations (Caco-2 cells; in the presence of cyclosporine A, data not shown) | AUC0–∞ in target tissues (hippocampus, cortex and cerebellum), comparison of enantiomers [1] | Antagonism of the inhibition of verapamil to P-gp relative to verapamil treatment alone (P-gp [2]; low concentration CLA 5 μmol/L plus verapamil 200 μmol/L) [%] | Decrease of Rh123 intracellular accumulation vs. control (P-gp [2]; lower concentration, CLA 5 μmol/L, Rh123 5 μmol/L) [%] | Decrease of Rh123 accumulation vs. control (P-gp [3]) [%]
1 | CN1C(=O)[C@@H](O)[C@H](c2ccccc2)[C@@H]1[C@@H](O)c1ccccc1 [(−)CLA, 3S, 4R, 5R, 6S-clausenamide] | significantly greater than that of the (+)-isomer | 30.0% | synergistic effect | 8.2% and 8.16% | 18.0 | 2.593 | 2.167 | 1.893 | 2.834 ± 0.808 | 4.829 ± 0.603 | 8.853 ± 2.505 | 1.091 | – | – | – | –
2 | CN1C(=O)[C@H](O)[C@@H](c2ccccc2)[C@H]1[C@H](O)c1ccccc1 [(+)CLA, 3R,4S,5S,6R-CLA] | – | 24.5% and 24.49% | synergistic effect | -25.92% | – | – | – | – | 1.093 ± 0.233 | 2.228 ± 0.065 | 4.677 ± 1.029 | – | greater values for AUC0–∞ than did (−)CLA | 35.5 | 25.9 | 28.2
